Results published in patent US20260364079A1 (Principia Biopharma Inc., priority 2022, published 2026).

Assay: phase 1/2 study in relapsed/refractory ITP (NCT03395210), safety
Settings: for Abdominal discomfort / Abdominal distension / Abdominal pain / Abnormal dreams / Akathisia / Alopecia / Anemia / Any TEAE / Arthralgia / Arthropod bite / Back pain / Conjunctival hemorrhage / Contusion / Costochondritis / Cough / Decreased appetite / Defecation urgency / Diarrhea / Dizziness / Dyspepsia / Dyspnea / Dyspnea exertional / Edema / Epigastric discomfort / Epistaxis / Erysipelas / Fatigue / Frequent bowel movements / Gingival bleeding / Headache / Heavy menstrual bleeding / Hypoesthesia / Hypophosphatemia / I lot flush / Ilypokalemia / Increased white blood cell count / Maculo-papular rash / Malaise / Micturition urgency / Muscle spasms / Myalgia / Nasal congestion / Nasopharyngitis / Nausea / Peripheral swelling / Petechiae / Pruritus / Purpura / Rash / Thrombocytopena / Upper abdominal pain / Upper respiratory tract infection / Urinary tract infection / Vomiting: TEAE any cause
Text: The Safety Population was used for all safety analyses.
Pre-existing conditions that worsened during a study were reported as AEs.
Safety was graded per NCI CTCAE, version 4.0.

[1] = 45 patients initiating 400 mg bid
[2] = any cause, unrelated to rilzabrutinib treatment, patients
[3] = baseline through end of treatment

CC(C)(C=C(C#N)C(=O)N1CCC[C@@H](n2nc(-c3ccc(Oc4ccccc4)cc3F)c3c(N)ncnc32)C1)N1CCN(C2COC2)CC1 (mixture of isomers) [rilzabrutinib, (R)-2-[3-[4-amino-3-(2-fluoro-4-phenoxy-phenyl)pyrazolo[3,4-d]pyrimidin-1-yl]piperidine-1-carbonyl]-4-methyl-4-[4-(oxetan-3-yl)piperazin-1-yl]pent-2-enenitrile]
Rescue medication use (200 mg qd): 1 patient
Rescue medication use (300 mg bid, patients): 1
Rescue medication use (400 mg bid, patients): 5
dose reductions/interruptions due to adverse events [1]: no dose reductions/interruptions due to adverse events
dose-limiting toxicities [1]: no dose-limiting toxicities
tolerability (ITP patients): well-tolerated
treatment-related bleeding or thrombotic events (ITP patients): no reported treatment-related bleeding or thrombotic events
Abdominal discomfort (any grade): 1 (2) number of patients (percent)
Abdominal distension (any grade): 6 (10) number of patients (percent)
Abdominal pain (any grade): 3 (5) number of patients (percent)
Abnormal dreams (any grade): 1 (2) number of patients (percent)
Akathisia (any grade): 1 (2) number of patients (percent)
Alopecia (any grade): 2 (3) number of patients (percent)
Anemia (any grade): 4 (7) number of patients (percent)
Any TEAE (any grade): 48 (80) number of patients (percent)
Arthralgia (any grade): 5 (8) number of patients (percent)
Arthropod bite (any grade): 3 (5) number of patients (percent)
Back pain (any grade): 8 (13) number of patients (percent)
Conjunctival hemorrhage (any grade): 5 (8) number of patients (percent)
Contusion (any grade): 11 (18) number of patients (percent)
Costochondritis (any grade): 2 (3) number of patients (percent)
Cough (any grade): 2 (3) number of patients (percent)
Decreased appetite (any grade): 1 (2) number of patients (percent)
Defecation urgency (any grade): 1 (2) number of patients (percent)
Diarrhea (any grade): 22 (37) number of patients (percent)
Dizziness (any grade): 2 (3) number of patients (percent)
Dyspepsia (any grade): 4 (7) number of patients (percent)
Dyspnea (any grade): 2 (3) number of patients (percent)
Dyspnea exertional (any grade): 2 (3) number of patients (percent)
Edema (any grade): 2 (3) number of patients (percent)
Epigastric discomfort (any grade): 1 (2) number of patients (percent)
Epistaxis (any grade): 2 (3) number of patients (percent)
Erysipelas (any grade): 1 (2) number of patients (percent)
Fatigue (any grade): 12 (20) number of patients (percent)
Frequent bowel movements (any grade): 1 (2) number of patients (percent)
Gingival bleeding (any grade): 3 (5) number of patients (percent)
Headache (any grade): 7 (12) number of patients (percent)
Heavy menstrual bleeding (any grade): 2 (3) number of patients (percent)
Hypoesthesia (any grade): 1 (2) number of patients (percent)
Hypophosphatemia (any grade): 2 (3) number of patients (percent)
I lot flush (any grade): 1 (2) number of patients (percent)
Ilypokalemia (any grade): 1 (2) number of patients (percent)
Increased white blood cell count (any grade): 1 (2) number of patients (percent)
Maculo-papular rash (any grade): 1 (2) number of patients (percent)
Malaise (any grade): 1 (2) number of patients (percent)
Micturition urgency (any grade): 1 (2) number of patients (percent)
Muscle spasms (any grade): 2 (3) number of patients (percent)
Myalgia (any grade): 1 (2) number of patients (percent)
Nasal congestion (any grade): 2 (3) number of patients (percent)
Nasopharyngitis (any grade): 3 (5) number of patients (percent)
Nausea (any grade): 21 (35) number of patients (percent)
Peripheral swelling (any grade): 3 (5) number of patients (percent)
Petechiae (any grade): 4 (7) number of patients (percent)
Pruritus (any grade): 2 (3) number of patients (percent)
Purpura (any grade): 2 (3) number of patients (percent)
Rash (any grade): 3 (5) number of patients (percent)
Thrombocytopena (any grade): 2 (3) number of patients (percent)
Upper abdominal pain (any grade): 3 (5) number of patients (percent)
Upper respiratory tract infection (any grade): 3 (5) number of patients (percent)
Urinary tract infection (any grade): 2 (3) number of patients (percent)
Vomiting (any grade): 4 (7) number of patients (percent)
Abdominal discomfort (grade 1): 1 (2) number of patients (percent)
Abdominal distension (grade 1): 6 (10) number of patients (percent)
Abdominal pain (grade 1): 1 (2) number of patients (percent)
Abnormal dreams (grade 1): 1 (2) number of patients (percent)
Akathisia (grade 1): 1 (2) number of patients (percent)
Alopecia (grade 1): 2 (3) number of patients (percent)
Anemia (grade 1): — (represents zero events)
Any TEAE (grade 1): 43 (72) number of patients (percent)
Arthralgia (grade 1): 3 (5) number of patients (percent)
Arthropod bite (grade 1): 3 (5) number of patients (percent)
Back pain (grade 1): 7 (12) number of patients (percent)
Conjunctival hemorrhage (grade 1): 5 (8) number of patients (percent)
Contusion (grade 1): 7 (12) number of patients (percent)
Costochondritis (grade 1): 2 (3) number of patients (percent)
Cough (grade 1): 2 (3) number of patients (percent)
Decreased appetite (grade 1): 1 (2) number of patients (percent)
Defecation urgency (grade 1): — (represents zero events)
Diarrhea (grade 1): 19 (32) number of patients (percent)
Dizziness (grade 1): 2 (3) number of patients (percent)
Dyspepsia (grade 1): 3 (5) number of patients (percent)
Dyspnea (grade 1): 2 (3) number of patients (percent)
Dyspnea exertional (grade 1): 2 (3) number of patients (percent)
Edema (grade 1): 2 (3) number of patients (percent)
Epigastric discomfort (grade 1): — (represents zero events)
Epistaxis (grade 1): 2 (3) number of patients (percent)
Erysipelas (grade 1): — (represents zero events)
Fatigue (grade 1): 10 (17) number of patients (percent)
Frequent bowel movements (grade 1): — (represents zero events)
Gingival bleeding (grade 1): 3 (5) number of patients (percent)
Headache (grade 1): 7 (12) number of patients (percent)
Heavy menstrual bleeding (grade 1): 1 (2) number of patients (percent)
Hypoesthesia (grade 1): — (represents zero events)
Hypophosphatemia (grade 1): — (represents zero events)
I lot flush (grade 1): — (represents zero events)
Ilypokalemia (grade 1): 1 (2) number of patients (percent)
Increased white blood cell count (grade 1): — (represents zero events)
Maculo-papular rash (grade 1): 1 (2) number of patients (percent)
Malaise (grade 1): 1 (2) number of patients (percent)
Micturition urgency (grade 1): 1 (2) number of patients (percent)
Muscle spasms (grade 1): 2 (3) number of patients (percent)
Myalgia (grade 1): 1 (2) number of patients (percent)
Nasal congestion (grade 1): 1 (2) number of patients (percent)
Nasopharyngitis (grade 1): 2 (3) number of patients (percent)
Nausea (grade 1): 18 (30) number of patients (percent)
Peripheral swelling (grade 1): 3 (5) number of patients (percent)
Petechiae (grade 1): 4 (7) number of patients (percent)
Pruritus (grade 1): 1 (2) number of patients (percent)
Purpura (grade 1): 2 (3) number of patients (percent)
Rash (grade 1): 1 (2) number of patients (percent)
Thrombocytopena (grade 1): — (represents zero events)
Upper abdominal pain (grade 1): 2 (3) number of patients (percent)
Upper respiratory tract infection (grade 1): 2 (3) number of patients (percent)
Urinary tract infection (grade 1): 1 (2) number of patients (percent)
Vomiting (grade 1): 3 (5) number of patients (percent)
Abdominal discomfort (grade 2): — (represents zero events)
Abdominal distension (grade 2): — (represents zero events)
Abdominal pain (grade 2): 2 (3) number of patients (percent)
Abnormal dreams (grade 2): — (represents zero events)
Akathisia (grade 2): — (represents zero events)
Alopecia (grade 2): — (represents zero events)
Anemia (grade 2): 2 (3) number of patients (percent)
Any TEAE (grade 2): 30 (50) number of patients (percent)
Arthralgia (grade 2): 2 (3) number of patients (percent)
Arthropod bite (grade 2): — (represents zero events)
Back pain (grade 2): 1 (2) number of patients (percent)
Conjunctival hemorrhage (grade 2): — (represents zero events)
Contusion (grade 2): 3 (5) number of patients (percent)
Costochondritis (grade 2): — (represents zero events)
Cough (grade 2): — (represents zero events)
Decreased appetite (grade 2): — (represents zero events)
Defecation urgency (grade 2): 1 (2) number of patients (percent)
Diarrhea (grade 2): 3 (5) number of patients (percent)
Dizziness (grade 2): — (represents zero events)
Dyspepsia (grade 2): 1 (2) number of patients (percent)
Dyspnea (grade 2): — (represents zero events)
Dyspnea exertional (grade 2): — (represents zero events)
Edema (grade 2): — (represents zero events)
Epigastric discomfort (grade 2): 1 (2) number of patients (percent)
Epistaxis (grade 2): — (represents zero events)
Erysipelas (grade 2): 1 (2) number of patients (percent)
Fatigue (grade 2): 2 (3) number of patients (percent)
Frequent bowel movements (grade 2): 1 (2) number of patients (percent)
Headache (grade 2): — (represents zero events)
Heavy menstrual bleeding (grade 2): 1 (2) number of patients (percent)
Hypoesthesia (grade 2): 1 (2) number of patients (percent)
Hypophosphatemia (grade 2): 2 (3) number of patients (percent)
I lot flush (grade 2): 1 (2) number of patients (percent)
Ilypokalemia (grade 2): — (represents zero events)
Increased white blood cell count (grade 2): 1 (2) number of patients (percent)
Maculo-papular rash (grade 2): — (represents zero events)
Malaise (grade 2): — (represents zero events)
Micturition urgency (grade 2): — (represents zero events)
Muscle spasms (grade 2): — (represents zero events)
Myalgia (grade 2): — (represents zero events)
Nasal congestion (grade 2): 1 (2) number of patients (percent)
Nasopharyngitis (grade 2): 1 (2) number of patients (percent)
Nausea (grade 2): 3 (5) number of patients (percent)
Peripheral swelling (grade 2): — (represents zero events)
Petechiae (grade 2): — (represents zero events)
Pruritus (grade 2): 1 (2) number of patients (percent)
Purpura (grade 2): — (represents zero events)
Rash (grade 2): 2 (3) number of patients (percent)
Thrombocytopena (grade 2): — (represents zero events)
Upper abdominal pain (grade 2): 1 (2) number of patients (percent)
Upper respiratory tract infection (grade 2): 1 (2) number of patients (percent)
Urinary tract infection (grade 2): 1 (2) number of patients (percent)
Vomiting (grade 2): 1 (2) number of patients (percent)
Abdominal discomfort (grade 3/4): — (represents zero events)
Abdominal distension (grade 3/4): — (represents zero events)
Abdominal pain (grade 3/4): — (represents zero events)
Abnormal dreams (grade 3/4): — (represents zero events)
Akathisia (grade 3/4): — (represents zero events)
Alopecia (grade 3/4): — (represents zero events)
Anemia (grade 3/4): 2 (3) number of patients (percent)
Arthralgia (grade 3/4): — (represents zero events)
Arthropod bite (grade 3/4): — (represents zero events)
Back pain (grade 3/4): — (represents zero events)
Conjunctival hemorrhage (grade 3/4): — (represents zero events)
Contusion (grade 3/4): 1 (2) number of patients (percent)
Costochondritis (grade 3/4): — (represents zero events)
Cough (grade 3/4): — (represents zero events)
Decreased appetite (grade 3/4): — (represents zero events)
Defecation urgency (grade 3/4): — (represents zero events)
Diarrhea (grade 3/4): — (represents zero events)
Dizziness (grade 3/4): — (represents zero events)
Dyspepsia (grade 3/4): — (represents zero events)
Dyspnea (grade 3/4): — (represents zero events)
Dyspnea exertional (grade 3/4): — (represents zero events)
Edema (grade 3/4): — (represents zero events)
Epigastric discomfort (grade 3/4): — (represents zero events)
Epistaxis (grade 3/4): — (represents zero events)
Erysipelas (grade 3/4): — (represents zero events)
Fatigue (grade 3/4): — (represents zero events)
Frequent bowel movements (grade 3/4): — (represents zero events)
Headache (grade 3/4): — (represents zero events)
Heavy menstrual bleeding (grade 3/4): — (represents zero events)
Hypoesthesia (grade 3/4): — (represents zero events)
Hypophosphatemia (grade 3/4): — (represents zero events)
I lot flush (grade 3/4): — (represents zero events)
Ilypokalemia (grade 3/4): — (represents zero events)
Increased white blood cell count (grade 3/4): — (represents zero events)
Maculo-papular rash (grade 3/4): — (represents zero events)
Malaise (grade 3/4): — (represents zero events)
Micturition urgency (grade 3/4): — (represents zero events)
Muscle spasms (grade 3/4): — (represents zero events)
Myalgia (grade 3/4): — (represents zero events)
Nasal congestion (grade 3/4): — (represents zero events)
Nasopharyngitis (grade 3/4): — (represents zero events)
Nausea (grade 3/4): — (represents zero events)
Peripheral swelling (grade 3/4): — (represents zero events)
Petechiae (grade 3/4): — (represents zero events)
Pruritus (grade 3/4): — (represents zero events)
Purpura (grade 3/4): — (represents zero events)
Rash (grade 3/4): — (represents zero events)
Thrombocytopena (grade 3/4): 2 (3) number of patients (percent)
Upper abdominal pain (grade 3/4): — (represents zero events)
Upper respiratory tract infection (grade 3/4): — (represents zero events)
Urinary tract infection (grade 3/4): — (represents zero events)
Vomiting (grade 3/4): — (represents zero events)
Rescue medication use (all patients): seven
grade 3 anemia (any cause, unrelated to rilzabrutinib treatment): 2 n
grade 3 abnormal alanine aminotransferase levels [2]: one each
grade 3 contusion [2]: one each
grade 3 gastrointestinal hemorrhage [2]: one each
grade 3 hematoma [2]: one each
grade 3 immune thrombocytopenia [2]: one each
grade 3 myelofibrosis [2]: one each
grade 3 thrombocytopenia [2]: one each
grade 4 Evans syndrome [2]: one each
grade 4 thrombocytopenia [2]: one each
≥1 treatment-related, treatment-emergent adverse event (any grade): 52%
grade 3, 4, or 5 bleeding events (IBLS Bleeding Scale) (baseline or week 24/EOS, n=34): no grade 3, 4, or 5 bleeding events
IBLS bleeding scale scores within each domain [3]: no increase in bleeding from baseline through the end of treatment
IBLS bleeding scale scores, skin and oral sites [3]: improved at skin and oral sites
